In the oligonucleotide strings, read from the 5' end, every base follows the letter of its sugar. An asterisk marks phosphorothioate; unmarked linkages are phosphodiester. Other units and linkages are bracketed, terminal groups are in braces. A string of capitals states the bases alone. e = 2'-O-(2-methoxyethyl) (MOE); [5mC] = 5-methylcytosine; d = 2'-deoxy (DNA)
Tests used:
[1] = tested on: T47Dp53 cells; assay: Cell cycle assay in T47Dp53 cells; assay type: cell-based, human; conditions: 150 nM, 48 hours, relative to untreated control
[2] = tested on: DIO mice; assay: Diet-induced obesity (DIO) mice; assay type: in vivo; conditions: 25 mg/kg s.c. twice weekly

Substance	% cells in cell cycle phase G1 [1]	% cells in cell cycle phase G2/M [1]	% cells in cell cycle phase S [1]	% cells in cell cycle phase aneuploid [1]	% cells in cell cycle phase subG1 [1]	liver toxicity (plasma transaminase levels, weekly) [2]
328403 (antisense eA*eG*eG*e[5mC]*e[5mC]*dT*dA*dT*dT*d[5mC]*d[5mC]*dT*dG*dT*dA*eG*e[5mC]*eA*eA*eA) [compound 328403]	114%	94%	87%	89%	140%	
CTAGTGGTCCTAAACATTTCAC (chemistry not given here) [ISIS 327878, uniform 2′-MOE PS; targets mir-203]						did not appear to cause liver toxicity

Source: patent US8178506B2, “Oligomeric compounds and compositions for use in modulation of small non-coding RNAs” (Regulus Therapeutics Inc., priority 2003, dated 2012)
